The values that follow are results of earlier work, collected in PMC5526551, “New hydrazonoindolin-2-ones: Synthesis, exploration of the possible anti-proliferative mechanism of action and encapsulation into PLGA microspheres” (PLoS ONE, 2017).

One series concerns NCI cell lines. Details: method as in PMID 17073710, PMID 16860559. Particulars: against 46 out of 53 NCI cell lines; cited from earlier work.
Series [1] deals with cyclin-dependent kinases (CDKs). Conditions: read-out: IC50 CDKs; binding to the ATP pocket; cited from earlier work.
Series [2] concerns the target glycogen synthase kinase 3 beta (GSK-3β). Conditions: read-out: IC50 GSK-3β; binding to the ATP pocket; cited from earlier work.

What is called GI50 is the concentration at which growth is held to half of that of the control. For the molecule `Cc1cc(C)c(/C=C2\C(=O)Nc3ccccc32)[nH]1` [Semaxanib], in the series with NCI cell lines, the GI50 was less than 10 nM.
A word on the IC50: it is the concentration needed to halve the response being measured. Regarding `O=C1Nc2ccccc2/C1=C1/Nc2ccccc2C1=O` [indirubin, Indirubin], the IC50 in series [1] was 75 µM; in series [2], […].
